The source of these data is patent US11459325B2, “Heterocyclic compound” (Takeda Pharmaceutical Company Limited, priority 2018, dated 2022).

One assay has as its system GBA mutant human fibroblasts GM008760. In words: Glucosylceramide lowering assay. It is filed as cell-based. Conditions: 10 μM test compound, 4 days culture; GlcCer (C16:0)/Cer (C16:0) molar ratio of test compound group relative to DMSO control group x100; smaller value = glucosylceramide lowering. As to the method:
Glucosylceramide Lowering Assay
Using GBA mutant human fibroblasts containing mutated glucosylceramidase, the effect of test compounds on glucosylceramide reduction was evaluated.
GBA mutant human fibroblasts GM008760 (Coriel Institute) were seeded in a 96-well multiwell plate at a density of 5,000 cells/100 μL culture solution/well. GlutaMAX (Thermo Fishcer Scientific), penicillin-streptomycin, and Minimum Essential Media (Thermo Fishcer Scientific) supplemented with 15% fetal bovine serum were used as a culture solution. After culturing for 2 days, a 10 mM DMSO solution of the test compound diluted with the culture solution was added to a 96-well plate by 100 μL to adjust a final test compound concentration to 10 μM. After culturing the cells for 4 days in the presence of the test compound, the culture solution was removed, and the cells adhered to the 96-well plate were washed with a phosphate buffer (ThermoFisher Scientific, product number 14190-144). A solvent composed of 50% ethanol and 50% isopropanol was added to the 96-well plate by 100 μL, and the intracellular lipids were dissolved by pipetting. A solution prepared by dissolving N-Octadecanoyl-D35-psychosine (50 ng/mL, Matreya LLC Inc.) as an internal standard in 50% ethanol and 50% isopropanol was added to the sample in an equal volume, and 2.5 μL of the centrifuged supernatant was used as the test compound group.
In the same manner as above, a control group was prepared by using DMSO instead of the 10 mM DMSO solution of the test compound.
For the test compound group and the control group, molar concentrations of glucosylceramide [GlcCer (C16:0)] and ceramide [Cer (C16:0)] were quantified using Rapidfire-MS/MS (API-5000, Turbo-ESI, SRM), and the glucosylceramide lowering effect of the test compound group relative to the control group was evaluated by the following formula. (GlcCer/Cer of test compound group)/(GlcCer/Cer of control group)×100 wherein GlcCer/Cer is the ratio of the molar concentration of glucosylceramide to that of ceramide.
In this test, when the numerical value obtained by the above calculation formula is small, glucosylceramide is metabolized to ceramide by the test compound, or the synthesis of glucosylceramide from ceramide is inhibited by the test compound, that is, it can be said that the test compound has a glucosylceramide lowering effect.
For the molecule `Cc1cn(C)c(=O)c2c(C(=O)N3CC4CC4(c4ccc(Cl)cc4)C3)cn(C)c12` (centres unmarked) [Example 265, 3-((1-(4-chlorophenyl)-3-azabicyclo[3.1.0]hex-3-yl)carbonyl)-1,5,7-trimethyl-1,5-dihydro-4H-pyrrolo[3,2-c]pyridin-4-one], the “10 μM GlcCer/Cer (% of control)” value was 34 % of control.

The assay is the same for the next values; noted with them: Homo sapiens, Fibroblast, 96 h; 10 μM test compound, 4 days culture; GlcCer (C16:0)/Cer (C16:0) molar ratio of test compound group relative to DMSO control group x100; smaller value = glucosylceramide lowering.
Regarding `Cc1cn(C)c(=O)c2c(C(=O)N3CCC4(c5cccc(Cl)c5)C(C3)C4(F)F)cn(C)c12` (centres unmarked) [Example 155, 3-((6-(3-chlorophenyl)-7,7-difluoro-3-azabicyclo[4.1.0]hept-3-yl)carbonyl)-1,5,7-trimethyl-1,5-dihydro-4H-pyrrolo[3,2-c]pyridin-4-one], the activity at 10 µM was 53%. Consider `Cc1cn(C)c(=O)c2c(C(=O)N3CCC(F)(c4ccc(Cl)cc4)C3)cn(C)c12` (centres unmarked) [Example 168, 3-((3-(4-chlorophenyl)-3-fluoropyrrolidin-1-yl)carbonyl)-1,5,7-trimethyl-1,5-dihydro-4H-pyrrolo[3,2-c]pyridin-4-one], for which the activity at 10 µM came out at 40%. Turning to `Cc1cn(C)c(=O)c2c(C(=O)N3CCC(Oc4cccc(C(F)(F)F)c4)CC3)cn(C)c12` [Example 176, 1,5,7-trimethyl-3-((4-(3-(trifluoromethyl)phenoxy)piperidin-1-yl)carbonyl)-1,5-dihydro-4H-pyrrolo[3,2-c]pyridin-4-one], the activity at 10 µM was 56%. For the molecule `Cc1cn(C)c(=O)c2c(C(=O)N3CCC(Oc4ccc(Cl)c(Cl)c4)CC3)cn(C)c12` [Example 178, 3-((4-(3,4-dichlorophenoxy)piperidin-1-yl)carbonyl)-1,5,7-trimethyl-1,5-dihydro-4H-pyrrolo[3,2-c]pyridin-4-one], the activity at 10 µM was found to be 42%. In the case of `Cc1cn(C)c(=O)c2c(C(=O)N3CCC(Oc4cccc(Cl)c4)CC3)cn(C)c12` [Example 188, 3-((4-(3-chlorophenoxy)piperidin-1-yl)carbonyl)-1,5,7-trimethyl-1,5-dihydro-4H-pyrrolo[3,2-c]pyridin-4-one], the activity at 10 µM was 65%.

Regarding `Cc1cn(C)c(=O)c2c(C(=O)N3CCC(Oc4ccc(Cl)cc4)CC3)cn(C)c12` [Example 189, 3-((4-(4-chlorophenoxy)piperidin-1-yl)carbonyl)-1,5,7-trimethyl-1,5-dihydro-4H-pyrrolo[3,2-c]pyridin-4-one], the activity at 10 µM came to 36%. For `Cc1cn(C)c(=O)c2c(C(=O)N3CCC(Oc4ccc(C(F)(F)F)cc4)CC3)cn(C)c12` [Example 190, 1,5,7-trimethyl-3-((4-(4-(trifluoromethyl)phenoxy)piperidin-1-yl)carbonyl)-1,5-dihydro-4H-pyrrolo[3,2-c]pyridin-4-one], the activity at 10 µM stood at 29%. Turning to `Cc1cn(C)c(=O)c2c(C(=O)N3C[C@H]4C[C@@]4(c4ccc(Cl)c(Cl)c4)C3)cn(C)c12` [Example 205, 3-(((1R,5S)-1-(3,4-dichlorophenyl)-3-azabicyclo[3.1.0]hex-3-yl)carbonyl)-1,5,7-trimethyl-1,5-dihydro-4H-pyrrolo[3,2-c]pyridin-4-one], the activity at 10 µM is 62%.

Take `Cc1cn(C)c(=O)c2c(C(=O)N3C[C@@H]4C[C@]4(c4ccc(Cl)c(Cl)c4)C3)cn(C)c12` [Example 206, 3-(((1S,5R)-1-(3,4-dichlorophenyl)-3-azabicyclo[3.1.0]hex-3-yl)carbonyl)-1,5,7-trimethyl-1,5-dihydro-4H-pyrrolo[3,2-c]pyridin-4-one]: the activity at 10 µM is 49%.

Take `Cc1cn(C)c(=O)c2c(C(=O)NCc3ccc(-c4ccc(Cl)cc4)s3)cn(C)c12` [Example 217, N-((5-(4-chlorophenyl)-2-thienyl)methyl)-1,5,7-trimethyl-4-oxo-4,5-dihydro-1H-pyrrolo[3,2-c]pyridine-3-carboxamide]: the activity at 10 µM came out at 64%. `Cc1cn(C)c(=O)c2c(C(=O)NC(C)(C)c3ccccc3)cn(C)c12` [Example 219, 1,5,7-trimethyl-4-oxo-N-(2-phenylpropan-2-yl)-4,5-dihydro-1H-pyrrolo[3,2-c]pyridine-3-carboxamide]: the activity at 10 µM turned out to be 63%. In the case of `Cc1cn(C)c(=O)c2c(C(=O)NC(C)(C)c3ccc(Cl)cc3)cn(C)c12` [Example 221, N-(2-(4-chlorophenyl)propan-2-yl)-1,5,7-trimethyl-4-oxo-4,5-dihydro-1H-pyrrolo[3,2-c]pyridine-3-carboxamide], the activity at 10 µM came out at 44%. As for `Cc1cn(C)c(=O)c2c(C(=O)NC3(c4cccc(Cl)c4)CCC3)cn(C)c12` [Example 227, N-(1-(3-chlorophenyl)cyclobutyl)-1,5,7-trimethyl-4-oxo-4,5-dihydro-1H-pyrrolo[3,2-c]pyridine-3-carboxamide], the activity at 10 µM stood at 59%. For `Cc1cn(C)c(=O)c2c(C(=O)NC3(c4ccc(Cl)cc4)CCC3)cn(C)c12` [Example 228, N-(1-(4-chlorophenyl)cyclobutyl)-1,5,7-trimethyl-4-oxo-4,5-dihydro-1H-pyrrolo[3,2-c]pyridine-3-carboxamide], the activity at 10 µM was found to be 43%. As for `Cc1cn(C)c(=O)c2c(C(=O)Nc3cccc(OCc4ccccc4)c3)cn(C)c12` [Example 231, N-(3-(benzyloxy)phenyl)-1,5,7-trimethyl-4-oxo-4,5-dihydro-1H-pyrrolo[3,2-c]pyridine-3-carboxamide], the activity at 10 µM worked out at 59%. On to `Cc1cn(C)c(=O)c2c(C(=O)N3CCC(c4ccc(Cl)cc4)CC3)cn(C)c12` [Example 258, 3-((4-(4-chlorophenyl)piperidin-1-yl)carbonyl)-1,5,7-trimethyl-1,5-dihydro-4H-pyrrolo[3,2-c]pyridin-4-one], for which the activity at 10 µM was 64%.

For the molecule `Cc1cn(C)c(=O)c2c(C(=O)N3CC4CC4(c4ccc5ccccc5c4)C3)cn(C)c12` (centres unmarked) [Example 261, 1,5,7-trimethyl-3-((1-(2-naphthyl)-3-azabicyclo[3.1.0]hex-3-yl)carbonyl)-1,5-dihydro-4H-pyrrolo[3,2-c]pyridin-4-one], the activity at 10 µM stood at 65%. As to `Cc1cn(C)c(=O)c2c(C(=O)N3CC4CC4(c4cccc5ccccc45)C3)cn(C)c12` (centres unmarked) [Example 262, 1,5,7-trimethyl-3-((1-(1-naphthyl)-3-azabicyclo[3.1.0]hex-3-yl)carbonyl)-1,5-dihydro-4H-pyrrolo[3,2-c]pyridin-4-one], the activity at 10 µM stood at 51%. Take `CCCCO[C@H]1CC[C@H](NC(=O)c2nn(C)c3c(C)cn(C)c(=O)c23)CC1` [Example 277, N-(trans-4-butoxycyclohexyl)-1,5,7-trimethyl-4-oxo-4,5-dihydro-1H-pyrazolo[4,3-c]pyridine-3-carboxamide]: the activity at 10 µM came out at 77%. Take `Cc1cn(C)c(=O)c2c(C(=O)Nc3ccccc3OCc3ccccc3)n(C)nc12` [Example 282, N-(2-(benzyloxy)phenyl)-2,5,7-trimethyl-4-oxo-4,5-dihydro-2H-pyrazolo[4,3-c]pyridine-3-carboxamide]: the activity at 10 µM came out at 66%. On to `CCCCO[C@H]1CC[C@H](NC(=O)c2cnn3c(C)cn(C)c(=O)c23)CC1` [Example 283, N-(trans-4-butoxycyclohexyl)-5,7-dimethyl-4-oxo-4,5-dihydropyrazolo[1,5-a]pyrazine-3-carboxamide], for which the activity at 10 µM turned out to be 75%.

For the molecule `Cc1cn(C)c(=O)c2c(C(=O)NCc3noc(-c4ccc(Cl)cc4)n3)cnn12` [Example 286, N-((5-(4-chlorophenyl)-1,2,4-oxadiazol-3-yl)methyl)-5,7-dimethyl-4-oxo-4,5-dihydropyrazolo[1,5-a]pyrazine-3-carboxamide], the activity at 10 µM worked out at 67%. Turning to `Cc1cn(C)c(=O)c2c(C(=O)N3CCC(Oc4ccc(OC(F)(F)F)cc4)CC3)cn(C)c12` [Example 288, 1,5,7-trimethyl-3-((4-(4-(trifluoromethoxy)phenoxy)piperidin-1-yl)carbonyl)-1,5-dihydro-4H-pyrrolo[3,2-c]pyridin-4-one], the activity at 10 µM was determined as 27%. Take `Cn1cc(C(=O)Nc2ccc(N3CCOCC3)cc2)c2c(=O)n(CC#N)ccc21` [Example 292, 5-(cyanomethyl)-1-methyl-N-(4-(morpholin-4-yl)phenyl)-4-oxo-4,5-dihydro-1H-pyrrolo[3,2-c]pyridine-3-carboxamide]: the activity at 10 µM turned out to be 89%. Still for that read-out and setting: with `COc1ccccc1-n1ccc2c(c(C(=O)Nc3ccc(N4CCOCC4)cc3)cn2C)c1=O` [Example 293, 5-(2-methoxyphenyl)-1-methyl-N-(4-(morpholin-4-yl)phenyl)-4-oxo-4,5-dihydro-1H-pyrrolo[3,2-c]pyridine-3-carboxamide] the figure was 52%.
